Test results from patent publication US10391070B2, “Compositions and methods for treating neurological diseases or injury” (MUSC FOUNDATION FOR RESEARCH DEVELOPMENT, priority 2012, dated 2019).

What was measured:
[1] = system: zebrafish larvae; assay: Zebrafish larval toxicity (NOEC, lethal dose); assay type: in vivo; details: for Lethal dose / Highest concentration tested for anti-seizure activity: 7 dpf zebrafish larvae; for Lethal dose: up to 5 h treatment; for Highest concentration tested for anti-seizure activity: highest sub-lethal dose
[2] = system: minimal clonic seizures (6 Hz); assay: Minimal clonic seizure (6 Hz) test; assay type: in vivo, mouse; details: mice; for animals protected/animals tested, 0.25 h / animals protected/animals tested, 0.5 h / animals protected/animals tested, 1.0 h / animals protected/animals tested, 2.0 h / animals protected/animals tested, 4.0 h: 6 Hz
Protocol: Mouse studies were performed by NIH Anticonvulsant Screening Program at the National Institute of Neurological Disorders and Stroke (Stables and Kupferberg, 1997) according to the established NIH experimental procedures outlined below. Compounds were delivered into mice by i.p. injection at a dose of 100 mg/kg in sterile 5% DMSO, 95% Neobee (Josey et al., 2013). One of four methods for seizure induction was subsequently administered to mice at 0.25, 0.5, 1, 2 and 4 h after treatment with compound. (1) Subcutaneous PTZ seizure threshold test. PTZ was administered at a concentration of 85 mg/kg, into the loose fold of skin in the midline of the neck. […] (2) Maximal electroshock test. 60 Hz of 50 mA alternating current was delivered for 0.2 s by corneal electrodes. Mice were considered protected from seizures when the hindlimb tonic extensor was absent (White et al., 1995). (3) Minimal clonic seizure (6 Hz) test. 6 Hz of 32 mA or 44 mA alternating current was delivered for 3 s by corneal electrodes to elicit a psychomotor seizure. Mice were considered protected from seizures when the automatistic behaviors were absent (Barton et al., 2001). (4) Corneal kindled mouse model. Mice were kindled electrically with a 3 s stimulation, 8 mA, 60 Hz, and corneal electrodes to a criterion of 10 consecutive Stage 5 seizures (facial clonus and head nodding progressing to forelimb clonus, and finally rearing and falling accompanied by a generalized clonic seizure as described by Racine, 1972). Animals generally reach Stage 5 after twice daily stimulation for 8 days. With continued stimulation once a day, animals usually progressed to a reproducible Stage 5 after 10-14 additional days. At least 72 hours after the mice were kindled, the test substance was administered i.p. and each animal was given the electrical stimulus indicated above. […] Treated animals not displaying a Stage 4 or 5 seizure were considered protected.
6 Hz of 32 mA or 44 mA alternating current was delivered for 3 s by corneal electrodes to elicit a psychomotor seizure. Mice were considered protected from seizures when the automatistic behaviors were absent (Barton et al., 2001). Pre-administration of test compounds (100 mg/kg) to mice via i.p. injection protects against minimal clonic seizures (6 Hz). The data for each treatment is represented as the number of animals protected/number of animals tested.
The minimal clonic seizure (6 Hz) test is generally used to assess a agent's efficacy against electrically-induced seizures but uses a lower frequency (6 Hz) and longer duration of stimulation (3s) shock. Test compounds are pre-administered to mice via i.p. injection. Individual mice are challenged with sufficient current delivered through corneal electrodes to elicit a psychomotor seizure in 97% of animals (32 mA for 3s). Untreated mice will display seizures characterized by a minimal clonic phase followed by stereotyped, automatistic behaviors described originally as being similar to the aura of human patients with partial seizures. Animals not displaying this behavior are considered protected. Animals may also be evaluated using stimulation of 22 or 44 mA.

[3] = system: HT22 cells; assay: Mitochondrial morphology and superoxide generation (MitoSOX, Mitotracker); assay type: cell-based, mouse; details: HT22, high extracellular glutamate, co-treatment
Protocol: In order to evaluate the source of the ROS generation, fluorescence microscopy was used to image HT22 using the fluorogenic dyes Mitotracker Deep Red (DR) and MitoSOX Red (Invitrogen). Mitotracker DR is a cell permeant dye that accumulates in active, polarized mitochondria. […] Briefly, HT22 cells were seeded onto black walled 96-well plates at 5.0×10^3 cells per well in 75 μL of medium and maintained at 37° C. in 5% CO2 overnight prior to the initiation of experimental treatments. Cells were subsequently treated with 25 μL of medium containing glutamate (monosodium glutamate, Sigma-Aldrich, 1 M stock concentration in media, to achieve a final concentration of 10 mM) plus inhibitors (stock in DMSO) and maintained at 37° C. in 5% CO2. After 8 hrs, MitoSOX Red (5 μM) and Mitotracker DR (10 nM) were added to achieve the indicated final concentrations. Cells were allowed to incubate for 20 minutes and then washed twice with Hanks Balanced Salt Solution (HBSS; Hyclone; CaCl2 1.26 mM, MgCl2-6H2O 0.493 mM, MgSO4-7H2O 0.407 mM, KCl 5.33 mM, KH2PO4 0.441 mM, NaHCO3 4.17 mM, NaCl 137.93 mM, Na2HPO4 0.338 mM, D-Glucose 5.56 mM), with a final addition of 100 μL of HBSS in which the cells were visualized. Cells were immediately visualized using an InCell 2000 Analyzer (GE) with a 40× objective and a Cy5/Cy5 excitation/emission filter set for Mitotracker DR and a YFP/Cy3 filter set for MitoSOX Red. Image processing was performed using ImageJ, and for all images, the microscope and image processing settings, such as levels, brightness, contrast, and exposure time were held constant across all treatment conditions.

Compound | Lethal dose [1] [mM] | Highest concentration tested for anti-seizure activity [1] [mM] | animals protected/animals tested, 0.25 h ([2]; 100 mg/kg i.p., 32 mA) | animals protected/animals tested, 0.5 h ([2]; 100 mg/kg i.p., 32 mA) | animals protected/animals tested, 1.0 h ([2]; 100 mg/kg i.p., 32 mA) | animals protected/animals tested, 2.0 h ([2]; 100 mg/kg i.p., 32 mA) | animals protected/animals tested, 4.0 h ([2]; 100 mg/kg i.p., 32 mA) | anticonvulsant activity in minimal clonic (6 Hz) test ([2]; 32 mA) | mitochondrial superoxide generation and mitochondrial fragmentation [3] | highest NOEC ([1]; zebrafish larvae) [µM] | protection against 6 Hz seizures ([2]; 100 mg/kg i.p., 32 mA, 0.25 h) [%] | protection in 6 Hz model at 44 mA ([2]; 44 mA)
O=C1C=C(NCc2ccccc2)C(=O)c2ccccc21 [Compound 2j, 2-(benzylamino)naphthalene-1,4-dione] | 0.012 | 0.010 | 0/4 | 0/4 | 1/4 | 1/4 | 1/4 | good anticonvulsant activity | prevented these events | – | – | –
O=C1C=C(NCc2cccc(Cl)c2)C(=O)c2ccccc21 [Compound 2q, 2-((3-chlorobenzyl)amino)naphthalene-1,4-dione] | >0.02 | 0.02 | 1/4 | 0/4 | 1/4 | 0/4 | 0/4 | good anticonvulsant activity | prevented these events | – | – | –
CC1=CC(=O)c2ccccc2C1=O [VK3, menadione, reference compound] | 0.007 | 0.006 | – | – | – | – | – | – | – | 10 | – | –
C#CCNC1=CC(=O)c2ccccc2C1=O [Compound 2h, 2-(prop-2-yn-1-ylamino)naphthalene-1,4-dione] | >0.02 | 0.02 | 4/4 | 2/4 | 1/4 | 1/4 | 0/4 | good anticonvulsant activity | – | – | 100 | did not result in any protection
menaquinones [VK2, reference compound] | – | – | – | – | – | – | – | – | prevented these events | – | – | –
